“Also recorded” adds a separate entry of the source. Blank lines part the entries; values can stand above or below the molecule they belong to.
What was measured:
[1] = Another study with different doses of R5P (5, 10 or 20 mg), plasma PLP levels vs controls; format: in vivo, human
Description: In another study, different doses of R5P were tested: 5, 10 or 20 mg of R5P (i.e. equivalent to the formulations administered to Treatment group C above, with the exception that 5, 10 or 20 mg of R5P was used rather than 40 mg R5P; 8 healthy women for each dose), and the PLP levels were compared to those measured in control healthy women not administered with R5P (24 subjects, equivalent to Treatment group A above).

[2] = Randomized controlled bioavailability study, three-way cross over, plasma PLP after treatments A, B, C; settings: for speed of increase / time of appearance of PLP in the plasma: given together with Doxylamine and Pyridoxine, R5P 40 mg, AUC 0-2 h
Description: The results depicted in FIGS. 2 and 3 were obtained from randomized controlled bioavailability studies in healthy women, which were carried out as follows.
To characterize the pharmacokinetic profile of Pyridoxal-5′-Phosphate (PLP) and to determine whether Riboflavin-5-phosphate (R5P), PLP or PYL in an immediate release formulation can be used to positively alter the kinetics of PLP compared to the current Diclectin® formulation (the current Diclectin® formulation is a delayed release formulation containing 10 mg Doxylamine succinate and 10 mg Pyridoxine-HCl).
Healthy female (n=12) participants between 18 and 45 years of age with a body mass index between 19 and 30 kg/m^2 were administered the treatments described below under empty stomach (fasted) conditions. Blood sampling was conducted extensively from 1 hour pre-administration until 24 hours post-administration. After a wash-out period of 21 days, dose administration and blood sampling was re-conducted as stated above. Doxylamine, Pyridoxine and Pyridoxine metabolites were measured using liquid chromatography-tandem mass spectrometry, as previously described (Nulman and Koren, Can J Clin Pharmacol Vol 16(3):e400-e406, 2009).
Three Way Cross Over Design.
Diclectin®: delayed release formulation containing 10 mg Doxylamine succinate and 10 mg Pyridoxine-HCl (PA-DR).
Immediate release: an oral solution of 20 mg Doxylamine succinate and 20 mg Pyridoxine-HCl (PA-IR).
Treatment group A: One (1) Diclectin® Tablet (current delayed release formulation of 10 mg Doxylamine and 10 mg Pyridoxine-HCl) plus an oral solution of 10 mg Doxylamine and 10 mg Pyridoxal HCl (immediate release) (PYL);
Treatment group B: One (1) Diclectin® Tablet (current delayed release formulation of 10 mg Doxylamine and 10 mg Pyridoxine-HCl) plus an oral solution of 10 mg Doxylamine and 10 mg Pyridoxal-5′-Phosphate (immediate release) (PLP);
Treatment group C: One (1) Diclectin® Tablet (current delayed release formulation of 10 mg Doxylamine and 10 mg Pyridoxine-HCl) plus an oral solution of 10 mg Doxylamine and 10 mg Pyridoxine HCl and 40 mg Riboflavin-5-phosphate (R5P) (immediate release).
Bioavailability; Tmax, Cmax and AUC0-t between each treatment. Doxylamine, and Pyridoxine and its metabolites were measured using liquid chromatography-tandem mass spectrometry, as previously described (Nulman and Koren, Can J Clin Pharmacol Vol 16 (3):e400-e406, 2009).

[3] = test system: nausea and vomiting of pregnancy symptoms; assay: Randomized controlled efficacy trial of Diclectin vs placebo in pregnant women: plasma levels vs PUQE score; format: in vivo, human; settings: pregnant women treated with Diclectin for 14 days; FIG. 1
Description: A randomized controlled efficacy trial of Diclectin® vs. placebo in pregnant women was carried out as follows, with the results shown in FIG. 1.
To assess the plasma levels of Doxylamine and PLP and the severity of nausea and vomiting of pregnancy symptoms in pregnant women treated with Diclectin®.
The demographic and medical characteristics of the subjects are as described in Koren et al., Am J Obstet Gynecol 2010; 203(6):571.e1-7.
The study design is as described in Koren et al., 2010, supra. Briefly, a randomized, double-blind, multicenter placebo controlled trial studying pregnant women suffering from nausea and vomiting of pregnancy, analyzed by intention to treat. Women received Diclectin (n=131) or placebo (n=125) for 14 days. Nausea and vomiting of pregnancy symptoms were evaluated daily using the pregnancy unique quantification of emesis scale (PUQE-24, Ebrahimi et al., J Obstet Gynaecol Can. 2009 September; 31(9):803-7).

effect on PLP levels relative to controls ([1]; 5 mg R5P, 8 healthy women, controls without R5P): no significant effect | effect on PLP levels relative to controls ([1]; 10 mg R5P, 8 healthy women, controls without R5P): no significant effect | effect with 20 mg R5P compared with 40 mg R5P ([1]; 20 mg vs 40 mg R5P): lower | inter-subject variations in PLP levels ([2]; administration of R5P): less inter-subject variations | speed of increase / time of appearance of PLP in the plasma ([2]; listed as FMN): faster time of appearance in the plasma
Compound: Cc1cc2nc3c(=O)[nH]c(=O)nc-3n(C[C@H](O)[C@H](O)[C@H](O)COP(=O)(O)O)c2cc1C [R5P, riboflavin-5-phosphate]
effect on pharmacokinetics of PLP relative to controls ([1]; 20 mg R5P, 8 healthy women, controls without R5P): some improvement in the pharmacokinetics of PLP | time to reach steady-state PLP levels ([2]; administration of R5P): decreased time to reach steady-state PLP levels | speed of increase / time of appearance of PLP in the plasma [2]: faster increase in the plasma level of PLP | PLP concentration (AUC) 0-12 h compared with Diclectin (PA-DR) ([2]; healthy women, fasted, one-way ANOVA, FIG. 2): did not increase PLP levels significantly; also recorded: does not significantly affect PLP levels

Compound: Cc1ncc(COP(=O)(O)O)c(C=O)c1O [PLP, Pyridoxal 5-phosphate]
plasma concentration vs severity of NVP (PUQE score) [3]: correlates with a reduction in the severity of NVP

Compound: CN(C)CCOC(C)(c1ccccc1)c1ccccn1 (stereo not drawn) [Doxylamine, reference compound]
plasma concentration vs severity of NVP (PUQE score) [3]: correlates with a reduction in the severity of NVP

speed of increase / time of appearance of PLP in the plasma [2]: did not result in such improvement
Compound: Cc1ncc(CO)c(C=O)c1O [PYL, Pyridoxal]
